From US9434687B2, “Detection of synthetic cannabinoids” (priority 2011, dated 2016)

Tests used:
[1] = test system: antiserum raised to Immunogen II (Hapten B-BTG); experiment: Competitive ELISA microtiter plate assay, antiserum raised to Immunogen II, conjugate Hapten A-HRP (Example 19); assay type: binding, sheep
Procedure: (§1) Aqueous solutions of the immunogens prepared in examples 5 and 13 were formulated with Freund's Complete Adjuvant (FCA) to form emulsions consisting of 2 mg/ml Immunogen I and 2 mg/ml of Immunogen II in 50% (v/v) FCA. Three sheep were immunised with each emulsion (1° immunisations), 0.25 ml being intramuscularly injected at four sites in the rump of each animal. Subsequent immunisations (boosts 2-8) contained 1 mg/ml Immunogen I and 1 mg/ml Immunogen II. All boosts were emulsified in 50% (v/v) Freund's Incomplete Adjuvant (FIA) and administered to the appropriate sheep in the same manner as the 1° immunisations, at monthly intervals. Blood sampling took place 7-14 days after each boost. Each sample was processed to produce antiserum, which was further purified by caprylic acid and ammonium sulphate precipitation to yield an immunoglobulin (Ig) fraction. The Ig fraction was evaluated by competitive ELISA microtiter plate assay, as described in example 19 below.
(§2) (a) The wells of an enhanced binding 96 well polystyrene microtiter plate were coated with the Ig fraction of the antiserum raised to Immunogen I (Hapten A-BTG—example 5) and diluted in 10 mM Tris, pH8.5 (125 μl/well). The appropriate antibody coating concentration was determined using standard ELISA checkerboard techniques. The plate was incubated for 2 hours at 37° C., washed 4 times over a 10-minute period with Tris buffered saline containing Tween 20 (TBST) and tapped dry. Standard solutions of JWH synthetic cannabinoids, metabolites and selected molecules were prepared in TBST and 50 μl of each was added to the appropriate wells. 75 μl of conjugate (Hapten A-HRP) diluted in Tris buffer containing EDTA, D-mannitol, sucrose, thimerosal and BSA, was added to each of the wells. The appropriate dilution of conjugate was also determined using standard ELISA checkerboard techniques. The plate was incubated at 25° C. for 1 hour. The excess unbound conjugate was removed by washing 6 times over a 10-minute period with TBST and tapped dry. 125 μl of tetramethylbenzedine (TMB) substrate solution was added to each well of the plate that was then incubated for 15-20 minutes in the dark at room temperature. The reaction was terminated by addition of 125 μl of 0.2M sulphuric acid to each well. The absorbance was then measured at 450 nm using a microtiter plate reader.
(§3) Employing each series of standards, calibration curves were generated and these were used to determine the specificity of the immunoassay for the JWH synthetic cannabinoids, metabolites and selected molecules. The results of this study are presented in Tables 1 to 3, cross-reactivity being calculated according to the following formula: % CR=IC50,JWH-018/IC50,CR×100
(§4) Where % CR is the percentage cross-reactivity, IC50, JWH-018 is the concentration of JWH-018 that causes 50% displacement of signal and IC50, CR is the concentration of JWH synthetic cannabinoid/metabolite/selected molecule that causes 50% displacement of signal.
Table 1: Data generated from a competitive microtiter plate assay for JWH synthetic cannabinoids and metabolites, employing antiserum raised to Immunogen II (Hapten B-BTG) and conjugate (Hapten A-HRP) as detection reagent.
(§5) (d) The resulting competitive ELISA for synthetic cannabinoids and metabolites was also employed to test for the 5-fluoropentyl derivative of JWH-018, (1-(5-fluoropentyl)indol-3yl (1-naphthyl) methanone (Table 4).

[2] = test system: antiserum raised to Immunogen I (Hapten A-BTG); experiment: Competitive ELISA microtiter plate assay, antiserum raised to Immunogen I, conjugate Hapten A-HRP (Example 19); assay type: binding, sheep
Procedure: as §1, §2, §3, §4
(b) In a similar manner to that described in Example 19(a), the wells of a 96 well microtiter plate were coated with the Ig fraction of the antiserum raised to Immunogen I (Hapten A-BTG). Conjugate (Hapten A-HRP) was employed as a detection reagent.
Table 2: Data generated from a competitive microtiter plate assay for JWH synthetic cannabinoids and metabolites, employing antiserum raised to Immunogen I (Hapten A-BTG) and conjugate (Hapten A-HRP) as detection reagent.
as §5

[3] = Table 1, CR based on 100% for JWH-018
[4] = Table 1, detecting agent derived from Hapten-A, 40 ng/ml highest concentration tested
[5] = Table 4, Immunogen II, relative to JWH-018
[6] = Table 2, CR based on 100% for JWH-018
[7] = Table 2, detecting agent derived from Hapten-A, 40 ng/ml highest concentration tested
[8] = Table 4, Immunogen I, relative to JWH-018

## CCCCCn1cc(C(=O)c2cccc3ccccc23)c2ccccc21 [JWH-018]
[1]; [3]
  % Cross-reactivity: 100.00%
[1]; [4]
  IC50: 2.11 ng/mL
[1]; Table 4, Immunogen II
  IC50: 1.97 ng/mL
[1]; [5]
  % Cross-reactivity: 100.00%
[2]
  binding to the antibody produced from Immunogen I (in words): able to bind
[2]; [6]
  % Cross-reactivity: 100.00%
[2]; [7]
  IC50: 2.71 ng/mL
[2]; Table 4, Immunogen I
  IC50: 2.30 ng/mL
[2]; [8]
  % Cross-reactivity: 100.00%

## CCCCn1cc(C(=O)c2cccc3ccccc23)c2ccccc21 [JWH-073]
[1]; [3]
  % Cross-reactivity: 135.26%
[1]; [4]
  IC50: 1.56 ng/mL
[2]; [6]
  % Cross-reactivity: 291.40%
[2]; [7]
  IC50: 0.93 ng/mL

## O=C(c1cccc2ccccc12)c1c[nH]c2ccccc12 [N-desalkyl JWH-018, 3-(1-naphthoyl)-1H-Indole]
[1]; [3]
  % Cross-reactivity: <<5.28%
[1]; [4]
  IC50: >>40 ng/ml
[2]; [6]
  % Cross-reactivity: 70.57%
[2]; [7]
  IC50: 3.84 ng/mL

## CCCCCn1cc(C(=O)c2cccc3ccccc23)c2c(O)cccc21 [4-OH JWH-018, JWH-018 4-hydroxyindole metabolite]
[1]; [3]
  % Cross-reactivity: 23.03%
[1]; [4]
  IC50: 9.16 ng/mL
[2]; [6]
  % Cross-reactivity: 10.62%
[2]; [7]
  IC50: 25.51 ng/mL

## O=C(O)CCCCn1cc(C(=O)c2cccc3ccccc23)c2ccccc21 [JWH-018 N-pentanoic acid metabolite]
[1]; [3]
  % Cross-reactivity: 38.50%
[1]; [4]
  IC50: 5.48 ng/mL
[2]; [6]
  % Cross-reactivity: 645.24%
[2]; [7]
  IC50: 0.42 ng/mL

## CCCCCn1cc(C(=O)c2cccc3ccccc23)c2ccc(O)cc21 [6-OH JWH-018, JWH-018 6-hydroxyindole metabolite]
[1]; [3]
  % Cross-reactivity: 215.31%
[1]; [4]
  IC50: 0.98 ng/mL
[2]
  binding to the antibody produced from Immunogen I (in words): able to bind
[2]; [6]
  % Cross-reactivity: 132.84%
[2]; [7]
  IC50: 2.04 ng/mL

## CCCCCn1cc(C(=O)c2ccc(Cl)c3ccccc23)c2ccccc21 [JWH-398]
[1]; [3]
  % Cross-reactivity: 12.02%
[1]; [4]
  IC50: 17.55 ng/mL
[2]; [6]
  % Cross-reactivity: <<6.78%
[2]; [7]
  IC50: >>40 ng/ml

## O=C(c1cccc2ccccc12)c1cn(CCCCCF)c2ccccc12 [AM-2201, 1-(5-Fluoropentyl)indol-3-yl (1-naphthyl) methanone]
[1]; Table 4, Immunogen II
  IC50: 0.22 ng/mL
[1]; [5]
  % Cross-reactivity: 908.00%
[2]; Table 4, Immunogen I
  IC50: 0.02 ng/mL
[2]; [8]
  % Cross-reactivity: 11500.00%

## O=C(c1cccc2ccccc12)c1cn(CCN2CCOCC2)c2ccccc12 [JWH-200]
[1]; [3]
  % Cross-reactivity: 127.11%
[1]; [4]
  IC50: 1.66 ng/mL
[2]; [6]
  % Cross-reactivity: 874.19%
[2]; [7]
  IC50: 0.31 ng/mL

## CCCCCn1cc(C(=O)c2cccc3ccccc23)c2cc(O)ccc21 [5-OH JWH-018, JWH-018 5-hydroxyindole metabolite]
[1]; [3]
  % Cross-reactivity: 130.25%
[1]; [4]
  IC50: 1.62 ng/mL
[2]
  binding to the antibody produced from Immunogen I (in words): able to bind
[2]; [6]
  % Cross-reactivity: 694.87%
[2]; [7]
  IC50: 0.39 ng/mL

## O=C(c1cccc2ccccc12)c1cn(CCCCCO)c2ccccc12 [JWH-018 N-(5-hydroxypentyl) metabolite]
[1]; [3]
  % Cross-reactivity: 183.48%
[1]; [4]
  IC50: 1.15 ng/mL
[2]; [6]
  % Cross-reactivity: 1505.56%
[2]; [7]
  IC50: 0.18 ng/mL
